# Measurements: paper PMC3305890, “Synthesis and pharmacological characterization of potent, selective, and orally bioavailable isoindoline class dipeptidyl peptidase IV inhibitors” (Organic and Medicinal Chemistry Letters, 2011)
# Assays:
# [1] = Metabolic stability in rat liver microsomes; assay type: in vitro ADME; details: 5 μM
# Protocol: (§1) The incubation mixture containing 0.25 mg of rat or human liver microsomes was preincubated with an NADPH-generating system for 5 min at 37°C. The reaction was started by the addition of 5 μL of a DMSO solution containing the test compound (5 μM). At t = 0 and at two additional time points between 0 and 30 min, aliquots (100 μL) were removed and added to termination mixtures (CH3CN). Proteins were sedimented by centrifugation and an aliquot of the supernatant was analyzed by LC/MS/MS.
# (§2) In determinations of the in vitrot1/2, the analyte/ISTD peak area ratio was converted to percentage of drug remaining by assigning a value of 100% to the peak area ratio at t = 0. The slope of the regression line fitted to the log (percentage remaining) versus incubation time relationship (-k) was used in the conversion of raw data to the in vitrot1/2 value. In vitro CLint was calculated using the following formula.
# (§3) CLint=0.693/Invitro t1/2×mL incubation/mg microsomes×45 mg microsomes/mg liver×[…] (b.w.)
# [2] = Metabolic stability in human liver microsomes; assay type: in vitro ADME; details: read-out: CL'int Human (converted)
# Protocol: as §1, §2, §3
# [3] = tested on: CYP2B; experiment: CYP2B enzyme induction in rat hepatocytes (7-pentoxyresorufin O-dealkylation); assay type: in vitro ADME; details: rat hepatocytes, 1, 10, 50 μM, 2 days
# Protocol: (§4) Enzyme induction was evaluated as follows: Hepatocytes isolated from male SD rats were maintained in culture for 1 day before treatment with the test compound or P-450 inducers. The cells were treated with the test compound (1, 10, 50 μM), β-naphthoflavone (10 μM, CYP1A inducer), phenobarbital (50 μM, CYP2B inducer), dexamethasone (10 μM, CYP3A inducer), or vehicle (0.1% DMSO final volume; used as negative control) for 2 days.
# (§5) Induction of CYP1A, CYP2B, and CYP3A enzymes was determined based on measurements of 7-ethoxyresorufin O-dealkylation, 7-pentoxyresorufin O-dealkylation, and testosterone 6β-hydroxylation, respectively. Assays were started by the addition of Krebs-Henseleit buffer containing 8 μM 7-ethoxyresorufin, 10 μM 7-pentoxyresorufin, or 250 μM testosterone at a volume of 100 μL per well. After incubation at 37°C for 30 min, aliquots were removed and analyzed by fluorometry (an excitation wavelength of 538 nm and an emission wavelength of 590 nm) or LC/MS/MS to determine the quantities of metabolites formed. Any test compound causing a dose-dependent change equal to or greater than 10% of the positive control (see formula below) was considered an enzyme inducer.
# (§6) % positive control=(activity of test - compound treated cells - activity of negative control)/(activity of positive control - activity of negative control)×100
# [4] = biological target: Human DPP-8 (Homo sapiens, UniProt Q6V1X1); experiment: In vitro assay for inhibition of DPP-8
# Protocol: (§7) Thus, isoindolines were synthesized as shown in Figure 1 and evaluated in vitro for their ability to inhibit human recombinant DPP-IV and were also screened for their selectivity over DPP-8/9 by a fluorescence assay using glycyl-proline 7-amino-4-methylcoumarin (H-Gly-Pro-AMC).
# (§8) Human DPP-8 and DPP-9 were expressed in baculovirus-infected Sf9 insect cells and purified using His-tagged protein purification resins. Inhibition of DPP-8 and -9 activities was determined as described above. 10 μL of appropriately diluted aqueous solutions of the test compounds was added to 96-well microtiter plates, followed by the addition of 50 μL of 1.0 mM H-Gly-Pro-AMC in buffer solution (50 mM HEPES, 0.1 mg/mL BSA, pH 8.0). The reaction was initiated by the addition of 40 μL of the enzyme solution diluted in the assay buffer.
# [5] = biological target: Human DPP-9 (Homo sapiens, UniProt Q86TI2); experiment: In vitro assay for inhibition of DPP-9
# Protocol: as §7, §8
# [6] = biological target: Human recombinant DPP-IV (Homo sapiens, UniProt P27487); experiment: In vitro assay for DPP-IV inhibition (H-Gly-Pro-AMC fluorescence)
# Protocol: Inhibition of DPP-IV activity was determined by measuring the rate of hydrolysis of a surrogate substrate, H-Gly-Pro-7-amino-4-methylcoumarin (H-Gly-Pro-AMC). Human recombinant DPP-IV was purchased from R&D Systems, Minneapolis, MN. 10 μL of appropriately diluted solutions of the test compounds in water was added to 96-well microtiter plates, followed by the addition of 40 μL of DPP-IV diluted in assay buffer (25 mM HEPES, 140 mM NaC1, 0.1 mg/mL BSA, pH 7.8). After a 30-min preincubation at room temperature, the reaction was initiated by the addition of 50 μL of the assay buffer containing 0.2 mM H-Gly-Pro-AMC.
# [7] = tested on: CYP1A; experiment: CYP1A enzyme induction in rat hepatocytes (7-ethoxyresorufin O-dealkylation); assay type: in vitro ADME; details: rat hepatocytes, 1, 10, 50 μM, 2 days
# Protocol: as §4, §5, §6
# [8] = tested on: CYP3A; experiment: CYP3A enzyme induction in rat hepatocytes (testosterone 6β-hydroxylation); assay type: in vitro ADME; details: rat hepatocytes, 1, 10, 50 μM, 2 days
# Protocol: as §4, §5, §6
# Chain of Human DPP-8 (Q6V1X1 whole entry): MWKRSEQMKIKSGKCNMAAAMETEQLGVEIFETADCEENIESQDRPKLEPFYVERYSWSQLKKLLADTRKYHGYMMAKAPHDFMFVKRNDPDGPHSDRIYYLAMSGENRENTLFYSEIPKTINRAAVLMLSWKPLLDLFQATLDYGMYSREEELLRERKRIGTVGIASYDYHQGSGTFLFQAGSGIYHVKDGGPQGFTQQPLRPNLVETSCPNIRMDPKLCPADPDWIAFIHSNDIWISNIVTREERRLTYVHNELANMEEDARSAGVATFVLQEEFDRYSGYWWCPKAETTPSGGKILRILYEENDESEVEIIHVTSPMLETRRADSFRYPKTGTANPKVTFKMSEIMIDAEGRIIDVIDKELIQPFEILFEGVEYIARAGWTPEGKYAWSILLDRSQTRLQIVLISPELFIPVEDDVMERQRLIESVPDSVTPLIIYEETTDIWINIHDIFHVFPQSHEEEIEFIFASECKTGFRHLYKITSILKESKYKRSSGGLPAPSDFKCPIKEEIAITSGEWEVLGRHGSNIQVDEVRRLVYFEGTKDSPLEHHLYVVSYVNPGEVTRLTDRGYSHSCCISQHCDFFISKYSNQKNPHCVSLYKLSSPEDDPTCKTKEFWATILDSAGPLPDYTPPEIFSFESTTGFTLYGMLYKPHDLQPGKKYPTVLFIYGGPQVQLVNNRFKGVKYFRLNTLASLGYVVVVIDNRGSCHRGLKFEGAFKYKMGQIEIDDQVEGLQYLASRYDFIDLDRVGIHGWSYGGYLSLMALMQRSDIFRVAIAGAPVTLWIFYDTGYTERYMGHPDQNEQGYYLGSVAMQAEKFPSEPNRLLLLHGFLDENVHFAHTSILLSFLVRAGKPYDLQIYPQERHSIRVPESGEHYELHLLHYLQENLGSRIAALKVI
# Chain of Human DPP-9 (Q86TI2 whole entry): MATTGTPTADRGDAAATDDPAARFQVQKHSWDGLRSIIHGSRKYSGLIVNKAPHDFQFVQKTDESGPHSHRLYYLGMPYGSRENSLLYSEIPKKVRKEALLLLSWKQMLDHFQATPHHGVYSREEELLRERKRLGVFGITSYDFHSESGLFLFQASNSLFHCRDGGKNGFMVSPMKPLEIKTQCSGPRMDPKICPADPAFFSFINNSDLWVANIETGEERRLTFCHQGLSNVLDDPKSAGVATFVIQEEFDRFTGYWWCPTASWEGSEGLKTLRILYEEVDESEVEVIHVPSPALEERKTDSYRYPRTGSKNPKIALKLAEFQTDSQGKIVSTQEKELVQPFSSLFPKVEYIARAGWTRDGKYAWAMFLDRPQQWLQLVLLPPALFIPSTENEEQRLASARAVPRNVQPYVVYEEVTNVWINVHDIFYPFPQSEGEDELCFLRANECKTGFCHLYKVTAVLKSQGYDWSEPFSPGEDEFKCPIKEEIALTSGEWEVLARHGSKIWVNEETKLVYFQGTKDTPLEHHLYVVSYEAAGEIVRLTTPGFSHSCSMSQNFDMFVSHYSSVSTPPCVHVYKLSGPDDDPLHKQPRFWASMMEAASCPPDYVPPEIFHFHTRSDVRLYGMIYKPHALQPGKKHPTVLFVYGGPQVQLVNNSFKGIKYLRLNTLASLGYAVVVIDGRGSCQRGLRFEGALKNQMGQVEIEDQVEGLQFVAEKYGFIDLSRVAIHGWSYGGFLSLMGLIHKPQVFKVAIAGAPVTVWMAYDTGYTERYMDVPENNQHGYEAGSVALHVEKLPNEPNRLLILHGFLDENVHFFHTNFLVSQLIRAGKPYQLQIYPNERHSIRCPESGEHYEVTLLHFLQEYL
# Chain of Human recombinant DPP-IV (P27487 whole entry): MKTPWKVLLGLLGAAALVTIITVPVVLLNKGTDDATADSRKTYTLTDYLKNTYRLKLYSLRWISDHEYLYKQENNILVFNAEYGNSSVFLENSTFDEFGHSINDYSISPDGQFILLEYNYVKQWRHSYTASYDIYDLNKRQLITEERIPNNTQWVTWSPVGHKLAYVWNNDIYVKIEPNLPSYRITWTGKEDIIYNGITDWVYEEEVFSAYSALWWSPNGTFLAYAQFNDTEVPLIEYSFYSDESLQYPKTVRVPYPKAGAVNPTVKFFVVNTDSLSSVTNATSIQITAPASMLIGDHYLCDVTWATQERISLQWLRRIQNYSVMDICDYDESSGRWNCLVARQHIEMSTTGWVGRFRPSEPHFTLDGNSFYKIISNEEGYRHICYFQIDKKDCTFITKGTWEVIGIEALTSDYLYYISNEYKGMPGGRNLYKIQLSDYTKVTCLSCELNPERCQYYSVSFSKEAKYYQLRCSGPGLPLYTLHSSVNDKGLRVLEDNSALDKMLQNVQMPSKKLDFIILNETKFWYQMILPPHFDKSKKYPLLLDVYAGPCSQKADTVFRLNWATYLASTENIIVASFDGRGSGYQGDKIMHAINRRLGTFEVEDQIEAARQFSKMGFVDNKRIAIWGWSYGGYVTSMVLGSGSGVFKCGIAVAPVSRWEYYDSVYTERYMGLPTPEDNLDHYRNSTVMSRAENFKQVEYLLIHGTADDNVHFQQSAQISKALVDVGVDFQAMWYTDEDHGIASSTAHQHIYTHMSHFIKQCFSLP
Compound,CL'int Rat [1] [mL/min/kg],CLint scaled at 5 μM [2] [mL/min/kg],Enzyme induction (rat) CYP2B [3],IC50 [4] [µM],IC50 [5] [µM],IC50 [6] [µM],Enzyme induction (rat) CYP1A [7],Enzyme induction (rat) CYP3A [8]
"CC(C)(CC(=O)N1Cc2ccc(F)cc2C1)NCC(=O)N1CCC[C@H]1C#N [Compound 4c, (S)-1-(2-(4-(5-Fluoroisoindolin-2-yl)-2-methyl-4-oxobutan-2-ylamino)acetyl)pyrrolidine-2-carbonitrile]",43.3,80,+ (Any test compound causing a dose-dependent change equal to or greater than 10% of the positive control (see formula below) was considered an enzyme inducer),> 100,> 100,0.0019,,
"CC(C)(CC(=O)N1Cc2ccccc2C1)NCC(=O)N1CCC[C@H]1C#N [Compound 4a, (S)-1-(2-(4-(Isoindolin-2-yl)-2-methyl-4-oxobutan-2-ylamino)acetyl)pyrrolidine-2-carbonitrile]",21.7,3.33,+ (Any test compound causing a dose-dependent change equal to or greater than 10% of the positive control (see formula below) was considered an enzyme inducer),,> 100,,+ (Any test compound causing a dose-dependent change equal to or greater than 10% of the positive control (see formula below) was considered an enzyme inducer),+ (Any test compound causing a dose-dependent change equal to or greater than 10% of the positive control (see formula below) was considered an enzyme inducer)
"CC(C)(CC(=O)N1Cc2cc(Cl)c(Cl)cc2C1)NCC(=O)N1CCC[C@H]1C#N [Compound 4j, (S)-1-(2-(4-(5,6-Dichloroisoindolin-2-yl)-2-methyl-4-oxobutan-2-ylamino)acetyl)pyrrolidine-2-carbonitrile]",,,+ (Any test compound causing a dose-dependent change equal to or greater than 10% of the positive control (see formula below) was considered an enzyme inducer),> 100,74,0.022,+ (Any test compound causing a dose-dependent change equal to or greater than 10% of the positive control (see formula below) was considered an enzyme inducer),
"CC(C)(CC(=O)N1Cc2ccc(C(F)(F)F)cc2C1)NCC(=O)N1CCC[C@H]1C#N [Compound 4f, (S)-1-(2-(2-Methyl-4-oxo-4-(5-(trifluoromethyl)isoindolin-2-yl)butan-2-ylamino)acetyl)pyrrolidine-2-carbonitrile]",,,+ (Any test compound causing a dose-dependent change equal to or greater than 10% of the positive control (see formula below) was considered an enzyme inducer),> 100,> 100,0.0054,+ (Any test compound causing a dose-dependent change equal to or greater than 10% of the positive control (see formula below) was considered an enzyme inducer),
"COc1cc(C)cc2c1CN(C(=O)CC(C)(C)NCC(=O)N1CCC[C@H]1C#N)C2 [Compound 4k, (S)-1-(2-(4-(4-Methoxy-6-methylisoindolin-2-yl)-2-methyl-4-oxobutan-2-ylamino)acetyl)pyrrolidine-2-carbonitrile]",,,+ (Any test compound causing a dose-dependent change equal to or greater than 10% of the positive control (see formula below) was considered an enzyme inducer),> 100,> 100,0.016,,
"CC(C)(CC(=O)N1Cc2cccc(F)c2C1)NCC(=O)N1CCC[C@H]1C#N [Compound 4g, (S)-1-(2-(4-(4-Fluoroisoindolin-2-yl)-2-methyl-4-oxobutan-2-ylamino)acetyl)pyrrolidine-2-carbonitrile]",,,+ (Any test compound causing a dose-dependent change equal to or greater than 10% of the positive control (see formula below) was considered an enzyme inducer),> 100,> 100,0.0026,,
"CC(C)(CC(=O)N1Cc2c(Cl)ccc(Cl)c2C1)NCC(=O)N1CCC[C@H]1C#N [Compound 4i, (S)-1-(2-(4-(4,7-Dichloroisoindolin-2-yl)-2-methyl-4-oxobutan-2-ylamino)acetyl)pyrrolidine-2-carbonitrile]",,,,> 100,> 100,0.0026,+ (Any test compound causing a dose-dependent change equal to or greater than 10% of the positive control (see formula below) was considered an enzyme inducer),
"CC(C)(CC(=O)N1Cc2ccc(Cl)cc2C1)NCC(=O)N1CCC[C@H]1C#N [Compound 4e, (S)-1-(2-(4-(5-Chloroisoindolin-2-yl)-2-methyl-4-oxobutan-2-ylamino)acetyl)pyrrolidine-2-carbonitrile]",,,+ (Any test compound causing a dose-dependent change equal to or greater than 10% of the positive control (see formula below) was considered an enzyme inducer),44,> 100,0.0048,,
"Cc1cccc2c1CN(C(=O)CC(C)(C)NCC(=O)N1CCC[C@H]1C#N)C2 [Compound 4h, (S)-1-(2-(2-Methyl-4-(4-methylisoindolin-2-yl)-4-oxobutan-2-ylamino)acetyl)pyrrolidine-2-carbonitrile]",,,+ (Any test compound causing a dose-dependent change equal to or greater than 10% of the positive control (see formula below) was considered an enzyme inducer),> 100,> 100,0.004,,
"CC(C)(CC(=O)N1Cc2ccc(Br)cc2C1)NCC(=O)N1CCC[C@H]1C#N [Compound 4d, (S)-1-(2-(4-(5-Bromoisoindolin-2-yl)-2-methyl-4-oxobutan-2-ylamino)acetyl)pyrrolidine-2-carbonitrile]",,,+ (Any test compound causing a dose-dependent change equal to or greater than 10% of the positive control (see formula below) was considered an enzyme inducer),36,> 100,0.003,,
